Data published in paper PMC7203957 (ACS Omega, 2020).
Several values for one entry are separate records, joined by “and”; a condition that tells them apart may be missing. Equal entries are not always repeated. Blank lines part the entries; values can stand above or below the compound they belong to.

Tests used:
GyrB (1–220) = GyrB (1–220) (Escherichia coli, UniProt P0AES6); assay: Isothermal titration calorimetry; assay type: binding, E. coli; settings: for exothermic / thermodynamic signal in ITC: fragment screening, result in words
HepG2 cytotoxicity = assay type: cell-based; settings: human, HepG2 (ATCC HB-8065) cells
E. coli ATCC 25922 = assay: Minimum inhibitory concentration; assay type: cell-based; settings: without efflux pump inhibitor
S. aureus ATCC 29213 = assay: Minimum inhibitory concentration; assay type: cell-based
[1] = Solubility test for ITC measurement; assay type: physicochemical; settings: DMSO (40–200 mM) and assay (ITC) buffer

ITC ΔH (GyrB (1–220); Table 2 fragments): −6.14 kcal/mol and -6.14^b kcal/mol
Compound: CNc1cccc2ccc(=O)[nH]c12 [Compound 2d, 8-(Methylamino)quinolin-2(1H)-one]

exothermic / thermodynamic signal in ITC (GyrB (1–220)): no exothermic effects
Compound: Nc1cccc2ccc(=O)[nH]c12 [Compound 2u, 8-aminoquinolin-2(1H)-one]

ITC ΔH (GyrB (1–220); Table 3): -13.7 kcal/mol
Compound: CNc1cccc2cc(C(=O)Nc3ccc(C(=O)O)cc3)c(=O)[nH]c12 [Compound 13e, 4-{[8-(Methylamino)-2-oxo-1,2-dihydroquinoline-3-carbonyl]amino}benzoic Acid]
cytotoxicity at 48 h, 50 µM (HepG2 cytotoxicity): 8.4%

MIC E. coli ATCC 25922 (E. coli ATCC 25922): no antibacterial activity
MIC S. aureus ATCC 29213 (S. aureus ATCC 29213): no antibacterial activity
ITC ΔH (GyrB (1–220); Table 3): -13.2 kcal/mol
Compound: CNc1cccc2cc(C(=O)NCCc3cccc(C(=O)O)c3)c(=O)[nH]c12 [Compound 13c, 3-(2-{[8-(Methylamino)-2-oxo-1,2-dihydroquinoline-3-carbonyl]amino}ethyl)benzoic Acid]

Solubility for ITC measurement [1]: low solubility
Compound: CNc1cccc2cc(C(=O)Nc3ccccc3)c(=O)[nH]c12 [Compound 13, 8-(Methylamino)-2-oxo-N-phenyl-1,2-dihydroquinoline-3-carboxamide]

exothermic / thermodynamic signal in ITC (GyrB (1–220)): no exothermic effects
Compound: CCNc1cccc2ccc(=O)[nH]c12 [Compound 2q, 8-(ethylamino) quinolin-2(1H)-one]

MIC E. coli ATCC 25922 (E. coli ATCC 25922): no antibacterial activity
MIC S. aureus ATCC 29213 (S. aureus ATCC 29213): no antibacterial activity
Compound: CNc1cccc2cc(C(=O)NCc3ccc(C(=O)O)cc3)c(=O)[nH]c12 [Compound 13f, 4-({[8-(Methylamino)-2-oxo-1,2-dihydroquinoline-3-carbonyl]amino}methyl)benzoic Acid]

ITC ΔH (GyrB (1–220); Table 3): -12.9 kcal/mol
Compound: CNc1cccc2cc(C(=O)Nc3cccc(C(=O)O)c3)c(=O)[nH]c12 [Compound 13a, 3-{[8-(Methylamino)-2-oxo-1,2-dihydroquinoline-3-carbonyl]amino}benzoic Acid]
